{"source": "paper PMC7139549", "about": "“TLD1433 Photosensitizer Inhibits Conjunctival Melanoma Cells in Zebrafish Ectopic and Orthotopic Tumour Models” (Cancers, 2020)", "key": {"[1]": {"tested_on": "CRMM2 engrafted cells in zebrafish orthotopic model", "test": "In situ TUNEL assay, CRMM2 orthotopic zebrafish model", "assay_type": "in vivo, Zebrafish (Danio rerio)", "details": "RO 2.3 mM", "protocol": "In situ TUNEL assay on fixed embryos was used to detect TLD1433 induced apoptosis in zebrafish CRMM1 and CRMM2 orthotopic tumour models at 4 dpi after light activation of 2.3 mM TLD1433, administrated by retro orbital injection. The DNA strand breaks in apoptotic tumour cells were stained with fluorescein and visualized as a green signal.\nFigure 10 TUNEL assay of in CRMM1 and CRMM2 orthotopic model after RO of TLD1433. Red fluorescent CRMM1 (A) and CRMM2 (B) cells were injected at 2dpf behind the ZF eye and divided into four groups for drug treatment. RO administration of vehicle control and TLD1433 was performed as described in Figure 9C,E. After dark or light exposure (21 mW/cm^2, 114 J.cm^−2, 520 nm) embryos were fixed and TUNEL staining was performed. Representative images of embryos are shown in this figure. (A,B) In TLD1433 light groups nuclear DNA fragmentation by nucleases is detected by co-localization of green (DNA fragments) and red signal of engrafted CM cells, depicted as yellow signal and marked by white arrows. In control dark, control light, TLD1433 dark, there are no positive green apoptotic tumour cells observed. […] Experiment was performed 3 times with a group size of 10 embryos.\nThe zebrafish larvae were fixed overnight with 4% PFA at 4 °C. Embryos were washed in PBST for 5 min and dehydrated by a graded methanol series until reaching 100% methanol. […]"}, "[2]": {"tested_on": "A431 epidermoid carcinoma cell line", "test": "SRB cell viability assay, A431", "assay_type": "cell-based, Human", "protocol": "TLD1433 is known to generate reactive oxygen species (ROS) with high quantum efficacy in many cancer cell lines. However, there is no report of the in vitro toxicity of this compound in eye melanoma (UM) cell lines. We determined the cell viability of three conjunctival melanoma cell lines (CRMM1, CRMM2 and CM2005.1), and three uveal melanoma cell lines (OMM1, OMM2.5, MEL270) in the presence of TLD1433, both in the dark or under green light irradiation (21 mW/cm^2, 19 J/cm^2, 520 nm, 15 min), and compared this viability to epidermoid carcinoma A431 and cutaneous melanoma A375 cell lines under the same conditions. […] The phototoxicity index (PI), defined as the ratio of the dark EC50 to the light EC50, was also calculated and represents the amplification of TLD1433 activity with a light trigger. […]\nFigure 2 Cell viability after TLD1433 treatment of eight tumour cell lines (CRMM1, CRMM2, CM2005.1, OMM1, OMM2.5, MEL270, A431, A375). […] The absorbance of Sulforhodamine B in solution was measured at 520 nm. […]\nAt day 0, cells were detached using 1mL of trypsin, resuspended in 4 mL of media and transferred to a 15 mL corning falcon tube. Cells were counted using trypan blue and BioRad® TC20™ automated cell counter (Figure 11). […] Next day, the dye was dissolved using Tri-base (0.25%) and absorbance of SRB at 510 nm was recorded from each well using a Tecan plate reader. […]"}}, "note": "Like-named read-outs stand apart in the source and are kept apart here.", "data": [{"smiles": "Cc1ccnc(-c2cc(C)ccn2)c1.Cc1ccnc(-c2cc(C)ccn2)c1.[Cl-].[Cl-].[Ru+2].c1csc(-c2ccc(-c3ccc(-c4nc5c6cccnc6c6ncccc6c5[nH]4)s3)s2)c1", "note": "[TLD1433]", "values": [{"measurement": "TUNEL apoptosis of engrafted cells (in words)", "setting": "[1]; dark, 4 dpi", "value": "no positive green signal detected"}, {"measurement": "TUNEL apoptosis of engrafted cells (in words)", "setting": "[1]; light 114 J.cm^−2, 4 dpi", "value": "induced CRMM1 and CRMM2 cell apoptosis"}, {"measurement": "EC50", "setting": "[2]; A431, dark, 24 h treatment, SRB, read-out: EC50, dark", "value": "> 5000", "unit": "nM"}, {"measurement": "EC50", "setting": "[2]; A431, green light 520 nm, 15 min, 21 mW/cm^2, 19 J.cm^−2, DLI 24 h, read-out: EC50,light", "value": 49, "unit": "nM"}]}]}
